Our source for the IC50 values is patent US8658639B2, “N-substituted-cyclic amino derivative” (Dainippon Sumitomo Pharma Co., Ltd, priority 2009, dated 2014).

Structures can show the parent of a compound that is named as a salt.

One may read the IC50 as the concentration at which inhibition is half-maximal.

This test has as its target T1, Recombinant human renin (Homo sapiens, UniProt P00797).
T1 sequence (P00797 67-406): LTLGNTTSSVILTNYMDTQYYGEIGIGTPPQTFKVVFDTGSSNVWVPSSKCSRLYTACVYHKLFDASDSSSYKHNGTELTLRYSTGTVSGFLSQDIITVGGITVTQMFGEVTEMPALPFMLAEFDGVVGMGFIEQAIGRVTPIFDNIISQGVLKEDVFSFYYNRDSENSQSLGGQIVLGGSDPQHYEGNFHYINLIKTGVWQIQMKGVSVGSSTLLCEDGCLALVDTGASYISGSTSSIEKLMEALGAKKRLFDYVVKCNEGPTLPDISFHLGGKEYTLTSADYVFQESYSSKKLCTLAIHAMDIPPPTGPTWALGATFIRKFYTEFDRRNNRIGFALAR
Description: In vitro renin inhibitory activity assay. The test is classed as biochemical. The conditions noted are these: recombinant human renin 4.2 ng/mL, substrate 4 μM, 37° C., one hour, pH 7.4. How it is done: Experiment 1: In Vitro Renin Inhibitory Activity Assay
Recombinant human renin (4.2 ng/mL) was reacted in 0.1M HEPES buffer (pH 7.4) containing 0.1M NaCl, 1 mM EDTA and 0.1 mg/mL BSA together with a substrate and a test compound at 37° C. for one hour. As the substrate, Arg-Glu(EDANS)-Ile-His-Pro-Phe-His-Leu-Val-Ile-His-Thr-Lys(DABCYL)-Arg (SEQ ID NO: 1) or DABCYL-γ-Abu-Ile-His-Pro-Phe-His-Leu-Val-Ile-His-Thr-EDANS (SEQ ID NO: 2) was added in such an amount so that the final concentration thereof became 4 μM. The elevated fluorescence intensity at the exciting wavelength 340 nm and the fluorescence wavelength 500 nm was measured by a fluorescence plate reader. The concentration of a test compound to be needed to inhibit an enzyme activity in the presence of a test compound in several concentrations by 50% was calculated as an IC50 value. The test compounds were diluted in DMSO and used in this Experiment.
Regarding `CCC(=O)NCCN1C(=O)C(C)(C)Oc2cc(C)c(C(=O)N(C(C)C)C3CCCN(C(=O)OC(C)OC(=O)C4CCOCC4)C3)cc21` (single isomer, unassigned) [Example 88], the IC50 amounted to 9.6 nM.
The same measure for `CCC(=O)NCCN1C(=O)C(C)(C)Oc2cc(C)c(C(=O)N(C(C)C)[C@@H]3CCCN(C(=O)OC(C)OC(=O)C(C)C)C3)cc21` (stereo partly drawn) [Example 1, 1-(Isobutyryloxy)ethyl (3R)-3-[isopropyl({2,2,7-trimethyl-3-oxo-4-[2-(propionylamino)ethyl]-3,4-dihydro-2H-1,4-benzoxazin-6-yl}carbonyl)amino]piperidine-1-carboxylate]: 160 nM; for `CCC(=O)NCCN1C(=O)C(C)(C)Oc2cc(C)c(C(=O)N(C(C)C)[C@@H]3CCCN(C(=O)OCOC(=O)C(C)C)C3)cc21` [Example 4]: 42 nM; for `CCC(=O)NCCN1C(=O)C(C)(C)Oc2cc(C)c(C(=O)N(C(C)C)[C@@H]3CCCN(C(=O)OCc4oc(=O)oc4-c4ccccc4)C3)cc21` [Example 7]: 1.3 nM.
For `CCC(=O)NCCN1C(=O)C(C)(C)Oc2cc(C)c(C(=O)N(C(C)C)C3CCCN(C(=O)OC(C)OC(=O)OC(C)C)C3)cc21` (centres unmarked) [Example 8], the IC50 was 410 nM.
Regarding `CCC(=O)NCCN1C(=O)C(C)(C)Oc2cc(C)c(C(=O)N(C(C)C)[C@@H]3CCCN(C(=O)OCOC(=O)OC)C3)cc21` [Example 9], the IC50 was found to be 140 nM.
With `CCC(=O)NCCN1C(=O)C(C)(C)Oc2cc(C)c(C(=O)N(C(C)C)[C@@H]3CCCN(C(=O)OCOC(=O)OCC4CC4)C3)cc21` [Example 11] the figure was 460 nM; with `CCC(=O)NCCN1C(=O)C(C)(C)Oc2cc(C)c(C(=O)N(C(C)C)[C@@H]3CCCN(C(=O)OCOC(=O)OC4CCC4)C3)cc21` [Example 12], 160 nM.
The same measure for `CCC(=O)NCCN1C(=O)C(C)(C)Oc2cc(C)c(C(=O)N(C(C)C)[C@@H]3CCCN(C(=O)OCOC(=O)OC4CCOCC4)C3)cc21` [Example 13]: 5.1 nM; for `CCC(=O)NCCN1C(=O)C(C)(C)Oc2cc(C)c(C(=O)N(C(C)C)C3CCCN(C(=O)OC(C)OC(=O)CC)C3)cc21` (centres unmarked) [Example 18]: 3.6 nM.
The same measure for `CCC(=O)NCCN1C(=O)C(C)(C)Oc2cc(C)c(C(=O)N(C(C)C)C3CCCN(C(=O)OC(OC(C)=O)C(C)C)C3)cc21` (centres unmarked) [Example 19]: 11 nM; for `CCC(=O)NCCN1C(=O)C(C)(C)Oc2cc(C)c(C(=O)N(C(C)C)C3CCCN(C(=O)OC(OC(=O)CC)C(C)C)C3)cc21` (centres unmarked) [Example 20]: 91 nM.
On to `CCC(=O)NCCN1C(=O)C(C)(C)Oc2cc(C)c(C(=O)N(C(C)C)[C@@H]3CCCN(C(=O)OC(C)(C)OC(C)=O)C3)cc21` [Example 21, 1-(Acetyloxy)-1-methylethyl (3R)-3-[isopropyl({2,2,7-trimethyl-3-oxo-4-[2-(propionylamino)ethyl]-3,4-dihydro-2H-1,4-benzoxazin-6-yl}carbonyl)amino]piperidine-1-carboxylate], for which the IC50 was found to be 62 nM.
The same measure for `CCC(=O)NCCN1C(=O)C(C)(C)Oc2cc(C(F)(F)F)c(C(=O)N(C(C)C)[C@@H]3CCCN(C(=O)[C@@H](N)C(C)C)C3)cc21` [Example 22, N-Isopropyl-2,2-dimethyl-3-oxo-4-[2-(propionylamino)ethyl]-7-(trifluoromethyl)-N-[(3R)-1-L-valylpiperidin-3-yl]-3,4-dihydro-2H-1,4-benzoxazine-6-carboxamide hydrochloride]: 85 nM; for `CCC(=O)NCCN1C(=O)C(C)(C)Oc2cc(C(F)(F)F)c(C(=O)N(C(C)C)C3CCCN(C(=O)OC(C)OC(=O)C(C)C)C3)cc21` (centres unmarked) [Example 26]: 21 nM.
The same measure for `CCC(=O)NCCN1C(=O)C(C)(C)Sc2cc(C(F)(F)F)c(C(=O)N(C(C)C)[C@@H]3CCCN(C(=O)OCc4oc(=O)oc4C)C3)cc21` [Example 30, (5-Methyl-2-oxo-1,3-dioxol-4-yl)methyl (3R)-3-[{[2,2-dimethyl-3-oxo-4-[2-(propionylamino)-ethyl]-7-(trifluoromethyl)-3,4-dihydro-2H-1,4-benzothiazin-6-yl]carbonyl}(isopropyl)amino]-piperidine-1-carboxylate]: 2.2 nM; for `CCC(=O)NCCN1C(=O)C(C)(C)Oc2cc(C(F)(F)F)c(C(=O)N(C(C)C)[C@@H]3CCCN(Cc4oc(=O)oc4C)C3)cc21` [Example 31, N-Isopropyl-2,2-dimethyl-N-{(3R)-1-[(5-methyl-2-oxo-1,3-dioxol-4-yl)methyl]piperidin-3-yl}-3-oxo-4-[2-(propionylamino)ethyl]-7-(trifluoromethyl)-3,4-dihydro-2H-1,4-benzoxazine-6-carboxamide]: 0.38 nM.
With `CCC(=O)NCCN1C(=O)C2(CCC2)Oc2cc(C)c(C(=O)N(C(C)C)C3CCCN(C(=O)OC(C)OC(C)=O)C3)cc21` (centres unmarked) [Example 33] the figure was 1.2 nM.
Regarding `CCOC(=O)OC(C)OC(=O)N1CCCC(N(C(=O)c2cc3c(cc2C)OC2(CCC2)C(=O)N3CCNC(=O)CC)C(C)C)C1` (centres unmarked) [Example 34], the IC50 turned out to be 140 nM.
The same measure for `CCC(=O)NCCN1C(=O)C2(CCC2)Oc2cc(C)c(C(=O)N(C(C)C)C3CCCN(C(=O)OC(OC(C)=O)C(C)C)C3)cc21` (centres unmarked) [Example 35]: 2.7 nM; for `CCOC(=O)OC(C)OC(=O)N1CCCC(N(C(=O)c2cc3c(cc2C(F)(F)F)OC(C)(COC)C(=O)N3CCNC(=O)CC)C(C)C)C1` (centres unmarked) [Example 38]: 58 nM; for `Cc1cc2c(cc1C(=O)N(C(C)C)[C@@H]1CCCN(C(=O)OCc3oc(=O)oc3C)C1)N(CCNC(=O)C(F)F)C(=O)C1(CC1)O2` [Example 39]: 3.6 nM.
With `CCC(=O)NCCN1C(=O)C2(CC2)Oc2cc(C)c(C(=O)N(C(C)C)[C@@H]3CCCN(C(=O)OCc4oc(=O)oc4C)C3)cc21` [Example 40] the figure was 2.6 nM.
The same measure for `CCC(=O)NCCN1C(=O)C2(CC2)Oc2cc(C)c(C(=O)N(C(C)C)C3CCCN(C(=O)OC(C)OC(=O)CC)C3)cc21` (centres unmarked) [Example 41]: 68 nM.
Take `CCC(=O)NCCN1C(=O)C2(CC2)Oc2cc(C)c(C(=O)N(C(C)C)C3CCCN(C(=O)OC(C)OC(=O)C(C)C)C3)cc21` (centres unmarked) [Example 42]: the IC50 is 15 nM.
Regarding `CCC(=O)NCCN1C(=O)C2(CC2)Oc2cc(C)c(C(=O)N(C(C)C)C3CCCN(C(=O)OC(C)OC(=O)C4CCOCC4)C3)cc21` (centres unmarked) [Example 43], the IC50 was 69 nM.
The same measure for `Cc1cc2c(cc1C(=O)N(C(C)C)[C@@H]1CCCN(C(=O)OCc3oc(=O)oc3C)C1)N(CCNC(=O)C(F)F)C(=O)C1(CCC1)O2` [Example 44]: 1.9 nM; for `CCC(=O)NCCN1C(=O)C2(CCC2)Oc2cc(C)c(C(=O)N(C(C)C)C3CCCN(C(=O)OC(OC(=O)C(C)C)C(C)C)C3)cc21` (centres unmarked) [Example 45]: 52 nM.
Regarding `CCC(=O)NCCN1C(=O)C2(CCC2)Oc2cc(C)c(C(=O)N(C(C)C)C3CCCN(C(=O)OC(OC(=O)CC)C(C)C)C3)cc21` (centres unmarked) [Example 46], the IC50 came to 74 nM.
With `CCC(=O)NCCN1C(=O)C2(CCC2)Oc2cc(C)c(C(=O)N(C(C)C)C3CCCN(C(=O)OC(C)OC(=O)C(C)C)C3)cc21` (centres unmarked) [Example 47] the figure was 76 nM.
With `CCC(=O)NCCN1C(=O)C2(CCC2)Oc2cc(C)c(C(=O)N(C(C)C)C3CCCN(C(=O)OC(C)OC(=O)C4CCOCC4)C3)cc21` (centres unmarked) [Example 48] the figure was 340 nM; with `CCC(=O)NCCN1C(=O)C2(CCC2)Oc2cc(C)c(C(=O)N(C(C)C)C3CCCN(C(=O)OC(C)OC(=O)COC)C3)cc21` (centres unmarked) [Example 49], 14 nM.
